IC50 data for 23 compounds are collected here from patent publication US11440913B2, “Aminoimidazopyridazines as kinase inhibitors” (BRISTOL-MYERS SQUIBB COMPANY, priority 2017, dated 2022).

The target of experiment [1] is His-GST-TVMV-hRIPK1(1-324) (Homo sapiens (Human), UniProt Q13546). Nature of the experiment: RIPK1 HTRF Binding Assay. The settings on record: HTRF binding, 1 h at rt; read-out: RIPK1 (IC50). In a few lines:
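HTRF probe-displacement binding: 1 nM His-GST-TVMV-hRIPK1(1-324) (baculovirus construct), 90.6 nM probe, 0.2 nM anti-GST-Tb in 20 mM HEPES, 10 mM MgCl2, 0.015% Brij-35, 4 mM DTT, 0.05 mg/mL BSA. Incubated 1 h at rt; FRET 520/495 nm ratio, inhibition relative to DMSO-only wells.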
(In general: TR-FRET usually uses a lanthanide donor and a delayed reading to cut background.)

The subject of experiment [2] is MLKL phosphorylation in HT29-L23 human colorectal adenocarcinoma cells. Nature of the experiment: MLKL Phosphorylation High-Content Assay. Format: cell-based. The settings on record: Homo sapiens, 6 h, necroptosis induced with TNFα, SMAC mimetic and Z-VAD, read-out: pMLKL (IC50). An outline of the steps:
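HT29-L23 cells pretreated 30 min at 37 °C with compound (6.25 to 0.106 μM final), then necroptosis induced with TNFα 35 ng/mL, SMAC mimetic 700 nM and Z-VAD 140 nM for 6 h. Fixed cells immunostained for MLKL pS358 and imaged; IC50 and Ymax from 4-parameter logistic fit.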

Each structure is given as a SMILES string. Counter-ions that a name gives are not always drawn.

What is called IC50 is the concentration that gives 50% inhibition.

His-GST-TVMV-hRIPK1(1-324), sequence (Q13546 1-324): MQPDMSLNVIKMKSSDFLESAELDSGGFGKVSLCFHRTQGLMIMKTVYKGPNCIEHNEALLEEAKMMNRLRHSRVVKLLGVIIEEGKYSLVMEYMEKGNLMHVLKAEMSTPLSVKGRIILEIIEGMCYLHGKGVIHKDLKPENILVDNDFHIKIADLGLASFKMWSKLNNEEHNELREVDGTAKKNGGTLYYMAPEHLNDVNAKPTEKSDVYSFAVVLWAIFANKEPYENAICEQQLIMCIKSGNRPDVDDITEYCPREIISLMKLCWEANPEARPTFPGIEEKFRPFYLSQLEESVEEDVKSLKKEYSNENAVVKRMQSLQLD

In the case of `[2H]C([2H])([2H])Oc1nc(C)c(-c2ccc3nc(NC(C)=O)cn3n2)cc1C(=O)NC([2H])([2H])c1cc(OC(F)(F)F)ccc1F` [Example 175, 5-{2-acetamidoimidazo[1,2-b]pyridazin-6-yl}-N-{[2-fluoro-5-(trifluoromethoxy)phenyl](deutero)methyl}-2-(deutero)methoxy-6-methylpyridine-3-carboxamide], the IC50 came out at 4 nM in experiment [1] and 16 nM in experiment [2].
On the same counts, the results for `[2H]C([2H])([2H])Oc1nc(C)c(-c2ccc3nc(NC(C)=O)cn3n2)cc1C(=O)NCc1ccc(F)c(F)c1OCC1CC1` [Example 176, N-{[2-(cyclopropylmethoxy)-3,4-difluorophenyl]methyl}-5-{2-acetamidoimidazo[1,2-b]pyridazin-6-yl}-2-(deutero)methoxy-6-methylpyridine-3-carboxamide] are 10 nM and 12 nM.
On the same counts, the results for `[2H]C([2H])([2H])Oc1nc(C)c(-c2ccc3nc(NC(C)=O)cn3n2)cc1C(=O)NCc1cc(F)cc(F)c1OCC1CC1` [Example 177, N-{[2-(cyclopropylmethoxy)-3,5-difluorophenyl]methyl}-5-{2-acetamidoimidazo[1,2-b]pyridazin-6-yl}-2-(deutero)methoxy-6-methylpyridine-3-carboxamide] are 2 nM and 3 nM.
As for `[2H]C([2H])([2H])Oc1nc(C)c(-c2ccc3nc(NC(C)=O)cn3n2)cc1C(=O)NCc1ccccc1OC(F)(F)F` [Example 178, 5-{2-acetamidoimidazo[1,2-b]pyridazin-6-yl}-2-(deutero) methoxy-6-methyl-N-{[2-(trifluoromethoxy)phenyl]methyl} pyridine-3-carboxamide], the IC50 turned out to be 4 nM in experiment [1] and 20 nM in experiment [2].
With `[2H]C([2H])([2H])Oc1nc(C)c(-c2ccc3nc(NC(C)=O)cn3n2)cc1C(=O)NCc1cc(OC(F)(F)F)ccc1F` [Example 179, 5-{2-acetamidoimidazo[1,2-b]pyridazin-6-yl}-N-{[2-fluoro-5-(trifluoromethoxy)phenyl]methyl}-2-(deutero)methoxy-6-methylpyridine-3-carboxamide], the IC50 in experiment [1] turned out to be 3 nM; in experiment [2], 13 nM.
Take `[2H]C([2H])([2H])Oc1nc(C)c(-c2ccc3nc(NC(C)=O)cn3n2)cc1C(=O)NCc1cc(OCC2CC2)ccc1F` [Example 180, N-{[5-(cyclopropyhnethoxy)-2-fluorophenyl]methyl}-5-{2-acetamidoimidazo[1,2-b]pyridazin-6-yl}-2-(deutero)methoxy-6-methylpyridine-3-carboxamide]: the IC50 in experiment [1] amounted to 4 nM; in experiment [2], 18 nM.
Turning to `Cc1ncc(-c2ccc3nc(NC(=O)CO)cn3n2)cc1C(=O)N[C@@H](C)c1cc(OC(F)(F)F)ccc1F` [Example 181, N-[(1S)-1-[2-fluoro-5-(trifluoromethoxy)phenyl]ethyl]-5-[2-(2-hydroxyacetamido)imidazo[1,2-b]pyridazin-6-yl]-2-methylpyridine-3-carboxamide], the results for the IC50 in experiment [1] and in experiment [2] were 103 nM and 171 nM, respectively.
With `Cc1ncc(-c2ccc3nc(NC(=O)CO)cn3n2)cc1C(=O)N[C@H](C)c1cc(C(F)(F)F)ccc1F` [Example 182, N-[(1R)-1-[2-fluoro-5-(trifluoromethyl)phenyl]ethyl]-5-[2-(2-hydroxyacetamido)imidazo [1,2-b]pyridazin-6-yl]-2-methylpyridine-3-carboxamide, TFA], the IC50 was 272 nM in experiment [1] and 455 nM in experiment [2].
For `Cc1ncc(-c2ccc3nc(NC(=O)CO)cn3n2)cc1C(=O)NCc1cc(C(F)(F)F)ccc1F` [Example 183, N-{[2-fluoro-5-(trifluoromethyl)phenyl]methyl}-5-[2-(2-hydroxyacetamido)imidazo [1,2-b]pyridazin-6-yl]-2-methylpyridine-3-carboxamide], the IC50 was 166 nM in experiment [1] and 392 nM in experiment [2].
Consider `[2H]C([2H])(NC(=O)c1cc(-c2ccc3nc(NC(=O)CO)cn3n2)cnc1C)c1cc(F)cc(F)c1OC1CCOCC1` [Example 184, N-{[3,5-difluoro-2-(oxan-4-yloxy)phenyl](deutero)methyl}-5-[2-(2-hydroxyacetamido)imidazo [1,2-b]pyridazin-6-yl]-2-methylpyridine-3-carboxamide], for which the IC50 in experiment [1] was 9 nM; in experiment [2], 177 nM.
Take `Cc1ncc(-c2ccc3nc(NC(=O)CO)cn3n2)cc1C(=O)N[C@H](C)c1cc(OC(F)(F)F)ccc1F` [Example 185, N-[(1R)-1-[2-fluoro-5-(trifluoromethoxy)phenyl]ethyl]-5-[2-(2-hydroxyacetamido)imidazo [1,2-b]pyridazin-6-yl]-2-methylpyridine-3-carboxamide]: the IC50 in experiment [1] was determined as 30 nM; in experiment [2], 81 nM.
As for `CC(=O)Nc1cn2nc(-c3cnc(C)c(C(=O)NCc4cc(F)cc(F)c4OC4CCCOC4)c3)ccc2n1` (stereo not shown) [Example 186, N-{[3,5-difluoro-2-(oxan-3-yloxy)phenyl]methyl}-5-{2-acetamidoimidazo[1,2-b]pyridazin-6-yl}-2-methylpyridine-3-carboxamide], the IC50 in experiment [1] was found to be 15 nM; in experiment [2] it was 96 nM.
Take `CC(=O)Nc1cn2nc(-c3cnc(C)c(C(=O)NCc4cc(F)cc(F)c4O[C@H]4CCOC4)c3)ccc2n1` [Example 187, N-({3,5-difluoro-2-[(3S)-oxolan-3-yloxy]phenyl}methyl)-5-{2-acetamidoimidazo [1,2-b]pyridazin-6-yl}-2-methylpyridine-3-carboxamide]: the figures for the IC50 in experiment [1] and in experiment [2] were 18 nM and 148 nM, respectively.
Consider `CC(=O)Nc1cn2nc(-c3cnc(C)c(C(=O)NCc4cc(F)cc(F)c4OC4CCOC(C)C4)c3)ccc2n1` (stereo not shown) [Example 188, N-({3,5-difluoro-2-[(2-methyloxan-4-yl)oxy]phenyl}methyl)-5-{2-acetamidoimidazo [1,2-b]pyridazin-6-yl}-2-methylpyridine-3-carboxamide], for which the results for the IC50 in experiment [1] and in experiment [2] were 22 nM and 217 nM, respectively.
With `CC(=O)Nc1cn2nc(-c3cnc(C)c(C(=O)NCc4cc(F)cc(F)c4OC4CC(C)OC(C)C4)c3)ccc2n1` (stereo not shown) [Example 189, N-({2-[(2,6-dimethyloxan-4-yl)oxy]-3,5-difluorophenyl}methyl)-5-{2-acetamidoimidazo [1,2-b]pyridazin-6-yl}-2-methylpyridine-3-carboxamide], the results for the IC50 in experiment [1] and in experiment [2] were 91 nM and 208 nM, respectively.
On the same counts, the results for `CC(=O)Nc1cn2nc(-c3cnc(C)c(C(=O)NCc4c(F)cccc4OCC(F)(F)F)c3)ccc2n1` [Example 190, 5-{2-acetamidoimidazo[1,2-b]pyridazin-6-yl}-N-{[2-fluoro-6-(2,2,2-trifluoroethoxy)phenyl]methyl}-2-methylpyridine-3-carboxamide] are 23 nM and 35 nM.
`CC(=O)Nc1cn2nc(-c3cnc(C)c(C(=O)NCc4cc(C(F)(F)F)ccn4)c3)ccc2n1` [Example 191, 5-{2-acetamidoimidazo[1,2-b]pyridazin-6-yl}-2-methyl-N-{[4-(trifluoromethyl)pyridin-2-yl]methyl}pyridine-3-carboxamide]: the IC50 in experiment [1] turned out to be 938 nM; in experiment [2], 86 nM.
On the same counts, the results for `CC(=O)Nc1cn2nc(-c3cnc(C)c(C(=O)NCc4ccccc4OCC(F)(F)F)c3)ccc2n1` [Example 193, 5-{2-acetamidoimidazo[1,2-b]pyridazin-6-yl}-2-methyl-N-{[2-(2,2,2-trifluoroethoxy)phenyl]methyl}pyridine-3-carboxamide] are 56 nM and 61 nM.
Turning to `CC(=O)Nc1cn2nc(-c3cnc(C)c(C(=O)NCc4cccc(OCC(F)(F)F)c4)c3)ccc2n1` [Example 194, 5-{2-acetamidoimidazo[1,2-b]pyridazin-6-yl}-2-methyl-N-{[3-(2,2,2-trifluoroethoxy)phenyl]methyl}pyridine-3-carboxamide], the IC50 in experiment [1] came out at 100 nM; in experiment [2] it was 141 nM.
For `CC(=O)Nc1cn2nc(-c3cnc(C)c(C(=O)NCc4cc(F)ccc4OCC(F)(F)F)c3)ccc2n1` [Example 195, 5-{2-acetamidoimidazo[1,2-b]pyridazin-6-yl}-N-{[5-fluoro-2-(2,2,2-trifluoroethoxy)phenyl]methyl}-2-methylpyridine-3-carboxamide], the results for the IC50 in experiment [1] and in experiment [2] were 43 nM and 188 nM, respectively.
Regarding `[2H]C([2H])([2H])[C@H](NC(=O)c1cc(-c2ccc3nc(NC(C)=O)cn3n2)cnc1C)c1cc(C(F)(F)F)ccc1F` [Example 196, 5-{2-acetamidoimidazo[1,2-b]pyridazin-6-yl}-N-[(1S)-1-[2-fluoro-5-(trifluoromethyl)phenyl](2,2,2-deutero)ethyl]-2-methylpyridine-3-carboxamide], the IC50 in experiment [1] worked out at 45 nM; in experiment [2] it was 5 nM.
For `[2H]C([2H])([2H])[C@@H](NC(=O)c1cc(-c2ccc3nc(NC(C)=O)cn3n2)cnc1C)c1cc(C(F)(F)F)ccc1F` [Example 197, 5-{2-acetamidoimidazo[1,2-b]pyridazin-6-yl}-N-[(1R)-1-[2-fluoro-5-(trifluoromethyl)phenyl](2,2,2-deutero)ethyl]-2-methylpyridine-3-carboxamide], the figures for the IC50 in experiment [1] and in experiment [2] were 72 nM and 23 nM, respectively.
With `[2H]C([2H])([2H])[C@H](NC(=O)c1cc(-c2ccc3nc(NC(C)=O)cn3n2)cnc1C)c1cc(OC(F)(F)F)ccc1F` [Example 198, 5-{2-acetamidoimidazo[1,2-b]pyridazin-6-yl}-N-[(1S)-1-[2-fluoro-5-(trifluoromethoxy)phenyl](2,2,2-deutero)ethyl]-2-methylpyridine-3-carboxamide], the IC50 in experiment [1] came to 16 nM; in experiment [2], 14 nM.
